From patent publication US20130052259A1, “LIPOSOMES COMPRISING AMPHIPATHIC DRUGS AND METHOD FOR THEIR PREPARATION” (priority 2010, published 2013)
≈ marks a conversion by molar mass, not a printed value.

Legend:
[1] = Physicochemical properties of VCR and TPT
Source text: The need to develop one liposome that includes two drugs at a specific predefined mole ratio required optimization of the loading conditions and “crosstalk” with the drugs. For this, physiochemical characterization of the two drugs is required.

[2] = in vivo; conditions: nude, mouse, plasma, iv
[3] = Pharmacokinetics in tumor-bearing nude mice after i.v. administration; conditions: eight hours post injection, based on AUC value
[4] = Maximum tolerated dose (MTD); parameters: species or system mice; conditions: mouse, in vivo; ≦15% body weight loss nadir lasting ≦2 days
Protocol: The MTD is determined in clinical trials by testing increasing doses on different groups of people until the highest dose with acceptable side effects is found. For each drug, the MTD as determined in clinical trials is then available via publicly available sources such as SciFinder which is the On Line search engine of The American Chemical Society for various information including MTD (in animals as well as in humans). […] In this context, the “MTD ratio” between two drugs is the ratio between the MTD determined for each drug.
Tumor volume, survival, and body weight were monitored 2-3 times per week.

[5] = tested on: Daoy medulloblastoma cells; assay: MTT cytotoxicity and median-effect (CI) analysis, Daoy; conditions: for Fractional kill (fa): 72 h MTT; for Dx (Dx1, Dx2, Dx12: dose for effect level fa): doses of Table 1 (ng/ml);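 on all read-outs here: drugs applied at fixed ratios over eight concentrations for 72 h, survival expressed against untreated control wells, affected fraction (fa) derived per well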
Protocol: Human medulloblastoma (Daoy) cells, colon cancer (SW480) cells and neuroblastoma (NB-EB) cells were exposed to fixed ratios at eight concentrations of drugs for 72 hours along the profile of the most cytotoxic drug. Viable cells were quantified using standard MTT assay (T. Mosmann, Rapid colorimetric assay for cellular growth and survival: application to proliferation and cytotoxicity assays. J Immunol Methods 65(1-2) (1983) 55-63).
Test data were converted to a percentage mean cell survival value relative to untreated control wells. The fraction of affected cells (fa) was subsequently determined for each well.
The median effect analysis uses the combination index (CI) value as a quantitative indicator of the degree of synergy or antagonism. Using this analysis method, CI=1.0 reflects additive activity, CI>1 signifies antagonism, and CI<1.0 indicates synergy.
Firstly, in vitro cytotoxicity of VCR, TPT and their combinations was evaluated using the median-effect analysis of Chou et al [T. C. […] The selection of this drug interaction analysis method was based on its suitability for assessing whether drugs interact synergistically (CI<1.0), additively (CI f 1.0), or antagonistically (CI>1.0) as a function of drug concentration for different fixed drug/drug ratios.

[6] = In vitro release of drugs from nanoliposomes in adult bovine serum at 37° C.; type: in vitro ADME; conditions: drug encapsulated in nSSL
Protocol: For studying the effect of biological fluids, drug loaded nSSLs were incubated up to 96 h at 37° C. in adult bovine serum (Biological Industries, Beit Haemek, Israel).

[7] = tested on: SW480 (colon) tumors; assay: Efficacy against SW480 (colon) tumors in nude mice, Kaplan-Meier; conditions: SW480 tumors s.c., i.v. at days 17, 23 and 29
Protocol: Nine mice were treated in each group. All mice received injections through the tail vain at days 17, 23 and 29.
Approximately 4 million Daoy and SW480 tumor cells were inoculated subcutaneously (s.c.) in the back of 5 weeks old NUDE-Hsd:Athymic mice. Tumor weights were determined according to the equation (length×width^2)/2 using direct caliper measurements (D. M. Euhus, C. Hudd, M. C. LaRegina, F. E. Johnson, Tumor measurement in the nude mouse. J Surg Oncol 31(4) (1986) 229-234; M. M. Tomayko, C. P. Reynolds, Determination of subcutaneous tumor size in athymic (nude) mice. Cancer Chemother Pharmacol 24(3) (1989) 148-154).
The statistical significance between different treatment groups was determined using Mood's median test [A. M. Mood, Introduction to the theory of statistics, McGraw-Hill, New York, 1950.].

Compound: CC[C@@]1(O)C(=O)OCc2c1cc1n(c2=O)Cc2cc3c(CN(C)C)c(O)ccc3nc2-1 [Topotecan (TPT), Topotecan]
- Non-polar/polar surface area ratio [1]: 2.81
- pKa [1]: 7.65
- solubility ([1]; pH 6, aqueous buffer): 3600 µM (≈ 1520 µg/mL)
- solubility ([1]; pH 8, aqueous buffer): 200 µM (≈ 84.3 µg/mL)
- AUC [2]: 2700 ± 910 ng·h/mL
- Cmax [2]: 3980 ± 1040 ng/mL
- MRT [2]: 0.6 ± 0.07 h
- clearance [2]: 1.28 mL/min
- half-life [2]: 1.03 h
- lactone ratio of TPT [3]: 9%

Compound: CC[C@]1(O)C[C@H]2CN(CCc3c([nH]c4ccccc34)[C@@](C(=O)OC)(c3cc4c(cc3OC)N(C=O)[C@H]3[C@@](O)(C(=O)OC)[C@H](OC(C)=O)[C@]5(CC)C=CCN6CC[C@]43[C@@H]65)C2)C1 [Vincristine (VCR), Vincristine]
- logP [1]: 2.97
- pKa [1]: 7.64
- logD ([1]; pH 6): 1.2
- solubility ([1]; pH 6, aqueous buffer): 300 µM (≈ 247 µg/mL)
- logD ([1]; pH 8): 2.81
- solubility ([1]; pH 8, aqueous buffer): 10 µM (≈ 8.25 µg/mL)
- AUC [2]: 2510 ± 460 ng·h/mL
- Cmax [2]: 1370 ± 340 ng/mL
- MRT [2]: 1.73 ± 0.3 h
- clearance [2]: 0.273 mL/min
- half-life [2]: 2.09 h
- MTD [4]: 1.5 mg/kg
- m (slope, Hill-type coefficient of the dose-effect curve) ([5]; Daoy cells): m: 1.926
- IC50 ([5]; Homo sapiens, Daoy, read-out: Dm (dose required to produce the median-effect)): 5.51 ng/mL (≈ 6.67 nM)
- Log [1/(1/fa − 1)] ([5]; dose 1 ng/ml): −1.43
- Fractional kill (fa) ([5]; dose 1 ng/ml): 0.04
- Log [1/(1/fa − 1)] ([5]; dose 2 ng/ml): −0.93
- Fractional kill (fa) ([5]; dose 2 ng/ml): 0.11
- Log [1/(1/fa − 1)] ([5]; dose 4 ng/ml): −0.36
- Fractional kill (fa) ([5]; dose 4 ng/ml): 0.30
- Log [1/(1/fa − 1)] ([5]; dose 8 ng/ml): 0.65
- Fractional kill (fa) ([5]; dose 8 ng/ml): 0.82
- Log [1/(1/fa − 1)] ([5]; dose 24 ng/ml): 1.07
- Fractional kill (fa) ([5]; dose 24 ng/ml): 0.92
- Dx (Dx1, Dx2, Dx12: dose for effect level fa) ([5]; fa 0.1): 1.76
- Dx (Dx1, Dx2, Dx12: dose for effect level fa) ([5]; fa 0.2): 2.68
- Dx (Dx1, Dx2, Dx12: dose for effect level fa) ([5]; fa 0.3): 3.55
- Dx (Dx1, Dx2, Dx12: dose for effect level fa) ([5]; fa 0.4): 4.46
- Dx (Dx1, Dx2, Dx12: dose for effect level fa) ([5]; fa 0.5): 5.50
- Dx (Dx1, Dx2, Dx12: dose for effect level fa) ([5]; fa 0.6): 6.79
- Dx (Dx1, Dx2, Dx12: dose for effect level fa) ([5]; fa 0.7): 8.55
- Dx (Dx1, Dx2, Dx12: dose for effect level fa) ([5]; fa 0.8): 11.31
- Dx (Dx1, Dx2, Dx12: dose for effect level fa) ([5]; fa 0.9): 17.22
- release kinetics order [6]: zero-order kinetics

Compound: Topotecan [Topotecan (TPT)]
- therapeutic efficacy (Kaplan-Meier, tumor ≧1000 mg as endpoint) ([7]; listed as Free TPT): inferior to the liposomal formulations
- therapeutic efficacy (Kaplan-Meier, tumor ≧1000 mg as endpoint) ([7]; listed as free TPT): more efficacious for colon cancer
- m (slope, Hill-type coefficient of the dose-effect curve) ([5]; Daoy cells): m: 1.663
- Dm (dose required to produce the median-effect) ([5]; Daoy cells, […]): Dm: 81.23 ng/ml
- Log [1/(1/fa − 1)] ([5]; dose 40 ng/ml): −0.64
- Fractional kill (fa) ([5]; dose 40 ng/ml): 0.18
- Log [1/(1/fa − 1)] ([5]; dose 60 ng/ml): −0.08
- Fractional kill (fa) ([5]; dose 60 ng/ml): 0.46
- Log [1/(1/fa − 1)] ([5]; dose 80 ng/ml): 0.04
- Fractional kill (fa) ([5]; dose 80 ng/ml): 0.52
- Log [1/(1/fa − 1)] ([5]; dose 200 ng/ml): 0.59
- Fractional kill (fa) ([5]; dose 200 ng/ml): 0.80
- Log [1/(1/fa − 1)] ([5]; dose 400 ng/ml): 1.15
- Fractional kill (fa) ([5]; dose 400 ng/ml): 0.93
- Dx (Dx1, Dx2, Dx12: dose for effect level fa) ([5]; fa 0.1): 21.67
- Dx (Dx1, Dx2, Dx12: dose for effect level fa) ([5]; fa 0.2): 35.29
- Dx (Dx1, Dx2, Dx12: dose for effect level fa) ([5]; fa 0.3): 48.80
- Dx (Dx1, Dx2, Dx12: dose for effect level fa) ([5]; fa 0.4): 63.65
- Dx (Dx1, Dx2, Dx12: dose for effect level fa) ([5]; fa 0.5): 81.23
- Dx (Dx1, Dx2, Dx12: dose for effect level fa) ([5]; fa 0.6): 103.66
- Dx (Dx1, Dx2, Dx12: dose for effect level fa) ([5]; fa 0.7): 135.22
- Dx (Dx1, Dx2, Dx12: dose for effect level fa) ([5]; fa 0.8): 186.99
- Dx (Dx1, Dx2, Dx12: dose for effect level fa) ([5]; fa 0.9): 304.53
- release kinetics order [6]: first-order kinetics followed by zero-order kinetics
